Measurements from article PMC9890698 (BMC Biology, 2023).
Several values for one entry are separate records, joined by “and”; a condition that tells them apart may be missing. Identical values can stand only once.

Tests used:
[1] = test system: washed murine platelets (P2Y1-R/Gαq signaling); assay: IP1 accumulation assay (HTRF) in washed murine platelets; format: cell-based, mouse; conditions: MRS2179 10 μM, 2 h; for Effect on IP1 levels: washed murine platelets, ADP 100 μM, Gq inhibitor 100 nM, apyrase 0.02 U/mL, result in words
Procedure: As performed in HEK293T cells, we thus quantified intracellular IP1 levels to monitor Gαq protein-dependent signaling pathways.
Platelet-rich plasma (PRP) was obtained by mixing blood with 1 volume of modified Hepes Tyrode’s buffer (137 mM NaCl, 2 mM KCl, 12 mM NaHCO3, 0.3 mM NaH2PO4, 1 mM MgCl2, 2 mM CaCl2, 5.5 mM glucose, 5 mM HEPES, and 0.35% (w/v) BSA, pH 6.7) followed by a centrifugation at 150 g for 2 min at 37 °C. Then, platelets were pelleted by centrifugation at 1000 g for 4 min, resuspended in modified Hepes Tyrode’s buffer (pH 7.4), adjusted to 3.10^8 platelets/mL in the presence of 0.02 U/mL of apyrase and 10 μM indomethacin and rested for 45 minutes at 37°C before platelet stimulation. PGI2 (0.5 μM) was added before centrifugation steps to avoid platelet activation.
Quantification of intracellular IP1 was performed using the HTRF (Homogeneous Time Resolved Fluorescence) IP1 competitive immunoassay (IP-One Tb kit. Cisbio. France) according to the manufacturer’s instructions. Briefly, 20,000 HEK293T/17 cells or 3.10^6 platelets were distributed in a 384-well white microplate (Greiner) and incubated with the indicated molecules for 30 min or 2 h at 37 °C in the presence of 50 mM of LiCl to prevent IP1 degradation. After addition of d2-labeled IP1 (acceptor) and anti-IP1-Cryptate (donor) for 1 h, the specific FRET signals were calculated by the fluorescence ratio of the acceptor and donor emission signal (665/620 nm) collected using a modified Infinite F500 (Tecan Group Ltd). Conversion of the HTRF ratio of each sample into IP1 concentrations was performed on the basis of a standard curve to determine the linear dynamic range of the assay.

[2] = target: T1, Human P2Y1-R (Homo sapiens, UniProt P47900); assay: IP1 accumulation assay (HTRF) in HEK293T cells expressing P2Y1-R; format: cell-based; conditions: MRS2179 10 μM, 2 h; for Effect on IP1 production: ADP 100 μM, Gq inhibitor 100 nM, result in words
T1 construct: expressed in transfected cells; host or cells: HEK293T/17
T1 sequence (P47900 whole entry): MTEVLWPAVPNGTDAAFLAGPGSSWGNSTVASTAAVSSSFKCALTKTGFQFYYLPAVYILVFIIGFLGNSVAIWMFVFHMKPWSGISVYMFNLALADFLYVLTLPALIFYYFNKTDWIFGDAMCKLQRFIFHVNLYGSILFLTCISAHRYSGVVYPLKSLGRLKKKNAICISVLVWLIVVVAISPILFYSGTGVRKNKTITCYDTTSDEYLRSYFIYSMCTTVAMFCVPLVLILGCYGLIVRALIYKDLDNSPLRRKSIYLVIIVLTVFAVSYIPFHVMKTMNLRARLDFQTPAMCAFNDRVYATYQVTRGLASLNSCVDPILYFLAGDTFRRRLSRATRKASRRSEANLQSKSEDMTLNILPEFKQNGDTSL
Source text: Since Gαq protein activation is known to induce PLC activation leading to IP3 and subsequent cytosolic calcium release, we analyzed the constitutive Gαq-dependent P2Y1-R signaling by quantifying intracellular inositol monophosphate (IP1) using a monoclonal antibody-based competitive ELISA. IP1 is a downstream metabolite of IP3 that accumulates in cells following Gαq protein-coupled receptor activation, making it an ideal readout for Gαq protein-dependent signaling pathways.

[3] = test system: P2Y1-R; parameters: method as in PMID 29724785; conditions: Alzheimer's disease mouse model, result in words; cited from earlier work
[4] = target: T2, Human P2Y12-R (Homo sapiens, UniProt Q9H244); assay: β-arrestin 2 recruitment BRET1 assay (β-arrestin 2-RLuc / P2Y12-R-Venus) in HEK293T cells; format: cell-based; conditions: 10 μM, 5 min, result in words
T2 construct: expressed in transfected cells; host or cells: HEK293T/17
T2 sequence (Q9H244 whole entry): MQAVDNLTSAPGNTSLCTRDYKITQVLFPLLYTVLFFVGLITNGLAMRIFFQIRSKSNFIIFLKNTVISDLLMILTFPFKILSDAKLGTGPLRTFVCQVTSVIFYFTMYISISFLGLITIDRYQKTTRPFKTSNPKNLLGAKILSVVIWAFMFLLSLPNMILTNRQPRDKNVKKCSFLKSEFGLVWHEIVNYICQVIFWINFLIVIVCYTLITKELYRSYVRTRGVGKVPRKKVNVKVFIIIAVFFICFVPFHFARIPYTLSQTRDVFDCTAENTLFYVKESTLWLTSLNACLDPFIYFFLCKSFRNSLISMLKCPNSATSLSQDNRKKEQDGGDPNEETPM
Source text: We assessed β-arrestin 2 recruitment to the receptor using BRET^1 assay. The assay measures the interaction between β-arrestin 2 fused to the Renilla reniformis luciferase (RLuc) energy donor and the receptor fused to fluorescent Venus energy acceptor (Fig. 3a). The recruitment of cytosolic β-arrestin 2 to the receptor at the plasma membrane in the presence of an agonist will promote a significant increase of the BRET signal compared to the basal state, reflecting the close proximity between the β-arrestin 2 energy donor and the receptor energy acceptor [22]. […]
G protein activation and β-arrestin 2 recruitment were performed as previously described. […] BRET signal between RLuc8 and GFP2 was measured after addition of the luciferase substrate coelenterazine 400a (5 μM). […] BRET signal was recorded after incubation with coelenterazine h (5 μM) for 8 min. For kinetics studies, BRET signal between RLuc and Venus was recorded at 20-s intervals at basal state for the 2 first minutes and then for 5 min after ligand injection. For saturation curves (BRET^1), the expression level of Venus- or RLuc-tagged protein was determined by direct measurement of total fluorescence and luminescence respectively. Total fluorescence was first measured with an excitation filter at 485 nm and an emission filter at 520 nm. […] BRET^2 and BRET^1 readings were collected using a modified Infinite F500 (Tecan Group Ltd). […]

Row | SMILES | IP1 concentration (% matched basal values) ([1]; murine platelets, individual mice) | Effect on IP1 levels [1] | Effect on IP1 production [2] | IP1 concentration ([2]; P2Y1-R) | Effect on network homeostasis, spatial learning and memory [3] | Effect on β-arrestin 2 recruitment [4]
1 | CNc1ncnc2c1ncn2[C@H]1C[C@H](OP(=O)(O)O)[C@@H](COP(=O)(O)O)O1 [MRS2179] | 42.6495 % matched basal values and 45.455 % matched basal values and 38.903 % matched basal values and 51.5072 % matched basal values and 54.7749 % matched basal values and 40.3524 % matched basal values and 43.9466 % matched basal values and 64.234 % matched basal values and 61.4369 % matched basal values and 43.9485 % matched basal values and 57.6391 % matched basal values and 59.347 % matched basal values and 42.2435 % matched basal values | decreased IP1 levels | strongly inhibited | 323.411 nM and 417.936 nM and 377.702 nM and 245.513 nM and 385.824 nM | restored network homeostasis and protected from the decline of spatial learning and memory | 
2 | Nc1ncnc2c1ncn2[C@@H]1O[C@H](COP(=O)(O)OP(=O)(O)O)[C@@H](O)[C@H]1O [ADP, adenosine diphosphate] |  | significantly increased | slightly but significantly potentiated |  |  | did not trigger β-arrestin 2 recruitment
